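Dose response: 5 concentrations. Exposure: 48 h. Format: 96-well plates. Endpoint: linear interpolation; highest concentration if not reached. At the TGI there is no net growth.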
What was measured:
Assay in all cases: DTP human tumour cell line panel, 48 h
786-0 renal = system: 786-0 renal
A498 renal = system: A498 renal
A549 NSCLC = system: A549 NSCLC
ACHN renal = system: ACHN renal
CAKI-1 renal = system: CAKI-1 renal
CCRF-CEM leukemia = system: CCRF-CEM leukemia
COLO 205 colon = system: COLO 205 colon
DU-145 prostate = system: DU-145 prostate
EKVX NSCLC = system: EKVX NSCLC
HCC-2998 colon = system: HCC-2998 colon
HCT-116 colon = system: HCT-116 colon
HCT-15 colon = system: HCT-15 colon
HL-60(TB) leukemia = system: HL-60(TB) leukemia
HOP-62 NSCLC = system: HOP-62 NSCLC
HOP-92 NSCLC = system: HOP-92 NSCLC
HS 578T breast = system: HS 578T breast
HT29 colon = system: HT29 colon
IGROV1 ovarian = system: IGROV1 ovarian
K-562 leukemia = system: K-562 leukemia
KM12 colon = system: KM12 colon
LOX IMVI melanoma = system: LOX IMVI melanoma
M14 melanoma = system: M14 melanoma
MALME-3M melanoma = system: MALME-3M melanoma
MCF7 breast = system: MCF7 breast
MDA-MB-231 breast = system: MDA-MB-231 breast
MDA-MB-435 = system: MDA-MB-435
MDA-N = system: MDA-N
MOLT-4 leukemia = system: MOLT-4 leukemia
NCI-H226 lung = system: NCI-H226 lung
NCI-H23 lung = system: NCI-H23 lung
NCI-H460 lung = system: NCI-H460 lung
NCI-H522 lung = system: NCI-H522 lung
NCI/ADR-RES ovarian = system: NCI/ADR-RES ovarian
OVCAR-3 ovarian = system: OVCAR-3 ovarian
OVCAR-4 ovarian = system: OVCAR-4 ovarian
OVCAR-5 ovarian = system: OVCAR-5 ovarian
OVCAR-8 ovarian = system: OVCAR-8 ovarian
PC-3 prostate = system: PC-3 prostate
RXF 393 renal = system: RXF 393 renal
SF-268 CNS = system: SF-268 CNS
SF-295 CNS = system: SF-295 CNS
SF-539 CNS = system: SF-539 CNS
SK-MEL-28 melanoma = system: SK-MEL-28 melanoma
SK-OV-3 ovarian = system: SK-OV-3 ovarian
SN12C renal = system: SN12C renal
SNB-19 CNS = system: SNB-19 CNS
SNB-75 CNS = system: SNB-75 CNS
SR leukemia = system: SR leukemia
SW-620 colon = system: SW-620 colon
T-47D breast = system: T-47D breast
TK-10 renal = system: TK-10 renal
U251 CNS = system: U251 CNS
UACC-257 melanoma = system: UACC-257 melanoma
UACC-62 melanoma = system: UACC-62 melanoma
UO-31 renal = system: UO-31 renal
RPMI-8226 leukemia = system: RPMI-8226 leukemia
SK-MEL-5 melanoma = system: SK-MEL-5 melanoma

O=C(CCC(C(=O)OCc1ccccc1)C(=O)OCc1ccccc1)Nc1ccc(OCc2ccccc2)cc1
TGI (786-0 renal): 32.2 µM | TGI (A498 renal): > 100 µM | TGI (A549 NSCLC): > 100 µM | TGI (ACHN renal): > 100 µM | TGI (CAKI-1 renal): > 100 µM | TGI (CCRF-CEM leukemia): > 100 µM | TGI (COLO 205 colon): > 100 µM | TGI (DU-145 prostate): > 100 µM | TGI (EKVX NSCLC): > 100 µM | TGI (HCC-2998 colon): > 100 µM | TGI (HCT-116 colon): 27.3 µM | TGI (HCT-15 colon): 79.4 µM | TGI (HL-60(TB) leukemia): > 100 µM | TGI (HOP-62 NSCLC): > 100 µM | TGI (HOP-92 NSCLC): > 100 µM | TGI (HS 578T breast): > 100 µM | TGI (HT29 colon): > 100 µM | TGI (IGROV1 ovarian): > 100 µM | TGI (K-562 leukemia): > 100 µM | TGI (KM12 colon): > 100 µM | TGI (LOX IMVI melanoma): > 100 µM | TGI (M14 melanoma): > 100 µM | TGI (MALME-3M melanoma): > 100 µM | TGI (MCF7 breast): 32.8 µM | TGI (MDA-MB-231 breast): > 100 µM | TGI (MDA-MB-435): > 100 µM | TGI (MDA-N): > 100 µM | TGI (MOLT-4 leukemia): > 100 µM | TGI (NCI-H226 lung): > 100 µM | TGI (NCI-H23 lung): > 100 µM | TGI (NCI-H460 lung): > 100 µM | TGI (NCI-H522 lung): > 100 µM | TGI (NCI/ADR-RES ovarian): > 100 µM | TGI (OVCAR-3 ovarian): > 100 µM | TGI (OVCAR-4 ovarian): > 100 µM | TGI (OVCAR-5 ovarian): > 100 µM | TGI (OVCAR-8 ovarian): 34 µM | TGI (PC-3 prostate): 47.2 µM | TGI (RXF 393 renal): > 100 µM | TGI (SF-268 CNS): > 100 µM | TGI (SF-295 CNS): > 100 µM | TGI (SF-539 CNS): > 100 µM | TGI (SK-MEL-28 melanoma): > 100 µM | TGI (SK-OV-3 ovarian): > 100 µM | TGI (SN12C renal): > 100 µM | TGI (SNB-19 CNS): > 100 µM | TGI (SNB-75 CNS): > 100 µM | TGI (SR leukemia): > 100 µM | TGI (SW-620 colon): > 100 µM | TGI (T-47D breast): > 100 µM | TGI (TK-10 renal): > 100 µM | TGI (U251 CNS): > 100 µM | TGI (UACC-257 melanoma): > 100 µM | TGI (UACC-62 melanoma): > 100 µM | TGI (UO-31 renal): > 100 µM

COC(=O)Cc1cccc2c1CCC2=O
TGI (786-0 renal): > 100 µM | TGI (A498 renal): > 100 µM | TGI (A549 NSCLC): > 100 µM | TGI (ACHN renal): > 100 µM | TGI (CCRF-CEM leukemia): > 100 µM | TGI (COLO 205 colon): > 100 µM | TGI (DU-145 prostate): > 100 µM | TGI (EKVX NSCLC): > 100 µM | TGI (HCC-2998 colon): > 100 µM | TGI (HCT-116 colon): > 100 µM | TGI (HCT-15 colon): > 100 µM | TGI (HL-60(TB) leukemia): > 100 µM | TGI (HOP-62 NSCLC): > 100 µM | TGI (HOP-92 NSCLC): > 100 µM | TGI (HS 578T breast): > 100 µM | TGI (HT29 colon): > 100 µM | TGI (IGROV1 ovarian): > 100 µM | TGI (K-562 leukemia): > 100 µM | TGI (KM12 colon): > 100 µM | TGI (LOX IMVI melanoma): > 100 µM | TGI (M14 melanoma): > 100 µM | TGI (MALME-3M melanoma): > 100 µM | TGI (MCF7 breast): > 100 µM | TGI (MDA-MB-231 breast): > 100 µM | TGI (MDA-MB-435): > 100 µM | TGI (MDA-N): > 100 µM | TGI (MOLT-4 leukemia): > 100 µM | TGI (NCI-H226 lung): > 100 µM | TGI (NCI-H23 lung): > 100 µM | TGI (NCI-H460 lung): > 100 µM | TGI (NCI-H522 lung): > 100 µM | TGI (NCI/ADR-RES ovarian): > 100 µM | TGI (OVCAR-3 ovarian): > 100 µM | TGI (OVCAR-4 ovarian): > 100 µM | TGI (OVCAR-5 ovarian): > 100 µM | TGI (OVCAR-8 ovarian): > 100 µM | TGI (PC-3 prostate): > 100 µM | TGI (RPMI-8226 leukemia): > 100 µM | TGI (RXF 393 renal): > 100 µM | TGI (SF-268 CNS): > 100 µM | TGI (SF-295 CNS): > 100 µM | TGI (SF-539 CNS): > 100 µM | TGI (SK-MEL-28 melanoma): > 100 µM | TGI (SK-MEL-5 melanoma): > 100 µM | TGI (SK-OV-3 ovarian): > 100 µM | TGI (SN12C renal): > 100 µM | TGI (SNB-19 CNS): > 100 µM | TGI (SNB-75 CNS): > 100 µM | TGI (SR leukemia): > 100 µM | TGI (SW-620 colon): > 100 µM | TGI (T-47D breast): > 100 µM | TGI (TK-10 renal): > 100 µM | TGI (U251 CNS): > 100 µM | TGI (UACC-257 melanoma): > 100 µM | TGI (UACC-62 melanoma): > 100 µM | TGI (UO-31 renal): > 100 µM

Nc1c(Br)cc2c(c1Br)Cc1cc(Br)ccc1-2
TGI (A498 renal): > 100 µM | TGI (A549 NSCLC): > 100 µM | TGI (ACHN renal): > 100 µM | TGI (CCRF-CEM leukemia): > 100 µM | TGI (COLO 205 colon): > 100 µM | TGI (DU-145 prostate): > 100 µM | TGI (HCC-2998 colon): > 100 µM | TGI (HCT-116 colon): > 100 µM | TGI (HCT-15 colon): > 100 µM | TGI (HOP-92 NSCLC): > 100 µM | TGI (HS 578T breast): > 100 µM | TGI (HT29 colon): > 100 µM | TGI (K-562 leukemia): > 100 µM | TGI (KM12 colon): > 100 µM | TGI (LOX IMVI melanoma): > 100 µM | TGI (M14 melanoma): > 100 µM | TGI (MCF7 breast): > 100 µM | TGI (MDA-MB-231 breast): > 100 µM | TGI (MDA-MB-435): > 100 µM | TGI (MDA-N): > 100 µM | TGI (MOLT-4 leukemia): > 100 µM | TGI (NCI-H226 lung): > 100 µM | TGI (NCI-H23 lung): > 100 µM | TGI (NCI-H460 lung): > 100 µM | TGI (NCI-H522 lung): > 100 µM | TGI (NCI/ADR-RES ovarian): > 100 µM | TGI (OVCAR-3 ovarian): > 100 µM | TGI (OVCAR-4 ovarian): > 100 µM | TGI (OVCAR-8 ovarian): > 100 µM | TGI (PC-3 prostate): > 100 µM | TGI (RXF 393 renal): > 100 µM | TGI (SF-268 CNS): > 100 µM | TGI (SF-295 CNS): > 100 µM | TGI (SK-MEL-28 melanoma): > 100 µM | TGI (SK-MEL-5 melanoma): > 100 µM | TGI (SK-OV-3 ovarian): > 100 µM | TGI (SN12C renal): > 100 µM | TGI (SNB-19 CNS): > 100 µM | TGI (SNB-75 CNS): > 100 µM | TGI (SR leukemia): > 100 µM | TGI (SW-620 colon): > 100 µM | TGI (T-47D breast): > 100 µM | TGI (TK-10 renal): > 100 µM | TGI (U251 CNS): > 100 µM | TGI (UACC-257 melanoma): > 100 µM | TGI (UO-31 renal): > 100 µM

— PubChem BioAssay (NCI)
